± gives the expanded uncertainty stated by the source.
Assay: refractive index (other wavelength) (dimensionless); xn = mol fraction of the nth substance listed
Settings: 293.5 K, 101 kPa, Liquid, Standard Abbe refractometry

Compound `CC(C)OC(C)C` [diisopropyl ether] + CC(C)O has a refractive index (Wavelength=404.7 nm, x1 = 0.0277) of 1.388 ± 0.00032, a refractive index (Wavelength=404.7 nm, x1 = 0.0507) of 1.3879 ± 0.00032 and a refractive index (Wavelength=404.7 nm, x1 = 0.051) of 1.38799 ± 0.00032. It also gave a refractive index (Wavelength=404.7 nm, x1 = 0.0717) of 1.38774 ± 0.00032, a refractive index (Wavelength=404.7 nm, x1 = 0.1528) of 1.38719 ± 0.00032 and a refractive index (Wavelength=404.7 nm, x1 = 0.1553) of 1.38719 ± 0.00032. For the same compound, the refractive index (Wavelength=404.7 nm, x1 = 0.1938) was 1.38688 ± 0.00033, the refractive index (Wavelength=404.7 nm, x1 = 0.2029) was 1.38669 ± 0.00033 and the refractive index (Wavelength=404.7 nm, x1 = 0.245) was 1.3865 ± 0.00033. It also gave a refractive index (Wavelength=404.7 nm, x1 = 0.297) of 1.38605 ± 0.00034, a refractive index (Wavelength=404.7 nm, x1 = 0.2973) of 1.38627 ± 0.00034 and a refractive index (Wavelength=404.7 nm, x1 = 0.3068) of 1.38571 ± 0.00034. The refractive index (Wavelength=404.7 nm, x1 = 0.398) was 1.38461 ± 0.00035, the refractive index (Wavelength=404.7 nm, x1 = 0.4609) was 1.38404 ± 0.00035 and the refractive index (Wavelength=404.7 nm, x1 = 0.5434) was 1.38333 ± 0.00036. It also gave a refractive index (Wavelength=404.7 nm, x1 = 0.6032) of 1.38277 ± 0.00037, a refractive index (Wavelength=404.7 nm, x1 = 0.6371) of 1.3824 ± 0.00038 and a refractive index (Wavelength=404.7 nm, x1 = 0.701) of 1.38179 ± 0.00039. For the same compound, the refractive index (Wavelength=404.7 nm, x1 = 0.754) was 1.38141 ± 0.00039, the refractive index (Wavelength=404.7 nm, x1 = 0.791) was 1.38107 ± 0.0004 and the refractive index (Wavelength=404.7 nm, x1 = 0.8296) was 1.38071 ± 0.00041. The refractive index (Wavelength=404.7 nm, x1 = 0.8864) was 1.38051 ± 0.00042, the refractive index (Wavelength=404.7 nm, x1 = 0.8903) was 1.38011 ± 0.00042 and the refractive index (Wavelength=404.7 nm, x1 = 0.9113) was 1.37989 ± 0.00042. The refractive index (Wavelength=404.7 nm, x1 = 0.9547) was 1.37948 ± 0.00043, the refractive index (Wavelength=404.7 nm, x1 = 0.973) was 1.37918 ± 0.00043 and the refractive index (Wavelength=404.7 nm, x1 = 0.9771) was 1.37921 ± 0.00043. For the same compound, the refractive index (Wavelength=404.7 nm, x1 = 1) was 1.37888 ± 0.00044, the refractive index (Wavelength=435.8 nm, x1 = 0.0277) was 1.38493 ± 0.00032 and the refractive index (Wavelength=435.8 nm, x1 = 0.0507) was 1.38485 ± 0.00032. For the same compound, the refractive index (Wavelength=435.8 nm, x1 = 0.051) was 1.38492 ± 0.00032, the refractive index (Wavelength=435.8 nm, x1 = 0.0717) was 1.38468 ± 0.00032 and the refractive index (Wavelength=435.8 nm, x1 = 0.1528) was 1.38413 ± 0.00032. For the same compound, the refractive index (Wavelength=435.8 nm, x1 = 0.1553) was 1.38413 ± 0.00032, the refractive index (Wavelength=435.8 nm, x1 = 0.1938) was 1.38381 ± 0.00033 and the refractive index (Wavelength=435.8 nm, x1 = 0.2029) was 1.38364 ± 0.00033. For the same compound, the refractive index (Wavelength=435.8 nm, x1 = 0.245) was 1.38325 ± 0.00033, the refractive index (Wavelength=435.8 nm, x1 = 0.297) was 1.383 ± 0.00034 and the refractive index (Wavelength=435.8 nm, x1 = 0.2973) was 1.3832 ± 0.00034. It also gave a refractive index (Wavelength=435.8 nm, x1 = 0.3068) of 1.38264 ± 0.00034, a refractive index (Wavelength=435.8 nm, x1 = 0.398) of 1.38154 ± 0.00035 and a refractive index (Wavelength=435.8 nm, x1 = 0.4609) of 1.38098 ± 0.00035. It also gave a refractive index (Wavelength=435.8 nm, x1 = 0.5434) of 1.38026 ± 0.00036, a refractive index (Wavelength=435.8 nm, x1 = 0.6032) of 1.37972 ± 0.00037 and a refractive index (Wavelength=435.8 nm, x1 = 0.6371) of 1.37934 ± 0.00038. The refractive index (Wavelength=435.8 nm, x1 = 0.701) was 1.37873 ± 0.00039, the refractive index (Wavelength=435.8 nm, x1 = 0.754) was 1.37834 ± 0.00039 and the refractive index (Wavelength=435.8 nm, x1 = 0.791) was 1.37802 ± 0.0004. It also gave a refractive index (Wavelength=435.8 nm, x1 = 0.8296) of 1.37766 ± 0.00041, a refractive index (Wavelength=435.8 nm, x1 = 0.8864) of 1.37747 ± 0.00042 and a refractive index (Wavelength=435.8 nm, x1 = 0.8903) of 1.37706 ± 0.00042. The refractive index (Wavelength=435.8 nm, x1 = 0.9113) was 1.37684 ± 0.00042, the refractive index (Wavelength=435.8 nm, x1 = 0.9547) was 1.37645 ± 0.00043 and the refractive index (Wavelength=435.8 nm, x1 = 0.973) was 1.37614 ± 0.00043. It also gave a refractive index (Wavelength=435.8 nm, x1 = 0.9771) of 1.37617 ± 0.00043, a refractive index (Wavelength=435.8 nm, x1 = 1) of 1.37585 ± 0.00044 and a refractive index (Wavelength=486.1 nm, x1 = 0.0277) of 1.38147 ± 0.00032. It also gave a refractive index (Wavelength=486.1 nm, x1 = 0.0507) of 1.38137 ± 0.00032, a refractive index (Wavelength=486.1 nm, x1 = 0.051) of 1.38146 ± 0.00032 and a refractive index (Wavelength=486.1 nm, x1 = 0.0717) of 1.38121 ± 0.00032. It also gave a refractive index (Wavelength=486.1 nm, x1 = 0.1528) of 1.38066 ± 0.00032, a refractive index (Wavelength=486.1 nm, x1 = 0.1553) of 1.38066 ± 0.00032 and a refractive index (Wavelength=486.1 nm, x1 = 0.1938) of 1.38034 ± 0.00033. The refractive index (Wavelength=486.1 nm, x1 = 0.2029) was 1.38016 ± 0.00033, the refractive index (Wavelength=486.1 nm, x1 = 0.245) was 1.37977 ± 0.00033 and the refractive index (Wavelength=486.1 nm, x1 = 0.297) was 1.37951 ± 0.00034. For the same compound, the refractive index (Wavelength=486.1 nm, x1 = 0.2973) was 1.37973 ± 0.00034, the refractive index (Wavelength=486.1 nm, x1 = 0.3068) was 1.37919 ± 0.00034 and the refractive index (Wavelength=486.1 nm, x1 = 0.398) was 1.37808 ± 0.00035. It also gave a refractive index (Wavelength=486.1 nm, x1 = 0.4609) of 1.37753 ± 0.00035, a refractive index (Wavelength=486.1 nm, x1 = 0.5434) of 1.37682 ± 0.00036 and a refractive index (Wavelength=486.1 nm, x1 = 0.6032) of 1.37624 ± 0.00037. It also gave a refractive index (Wavelength=486.1 nm, x1 = 0.6371) of 1.37588 ± 0.00038, a refractive index (Wavelength=486.1 nm, x1 = 0.701) of 1.37528 ± 0.00039 and a refractive index (Wavelength=486.1 nm, x1 = 0.754) of 1.3749 ± 0.00039. For the same compound, the refractive index (Wavelength=486.1 nm, x1 = 0.791) was 1.37455 ± 0.0004, the refractive index (Wavelength=486.1 nm, x1 = 0.8296) was 1.37423 ± 0.00041 and the refractive index (Wavelength=486.1 nm, x1 = 0.8864) was 1.374 ± 0.00042. It also gave a refractive index (Wavelength=486.1 nm, x1 = 0.8903) of 1.37363 ± 0.00042, a refractive index (Wavelength=486.1 nm, x1 = 0.9113) of 1.37339 ± 0.00042 and a refractive index (Wavelength=486.1 nm, x1 = 0.9547) of 1.37301 ± 0.00043. It also gave a refractive index (Wavelength=486.1 nm, x1 = 0.973) of 1.37271 ± 0.00043, a refractive index (Wavelength=486.1 nm, x1 = 0.9771) of 1.37274 ± 0.00043 and a refractive index (Wavelength=486.1 nm, x1 = 1) of 1.37241 ± 0.00044. For the same compound, the refractive index (Wavelength=546.1 nm, x1 = 0.0277) was 1.3786 ± 0.00032, the refractive index (Wavelength=546.1 nm, x1 = 0.0507) was 1.3785 ± 0.00032 and the refractive index (Wavelength=546.1 nm, x1 = 0.051) was 1.37859 ± 0.00032. For the same compound, the refractive index (Wavelength=546.1 nm, x1 = 0.0717) was 1.37834 ± 0.00032, the refractive index (Wavelength=546.1 nm, x1 = 0.1528) was 1.37779 ± 0.00032 and the refractive index (Wavelength=546.1 nm, x1 = 0.1553) was 1.37779 ± 0.00032. For the same compound, the refractive index (Wavelength=546.1 nm, x1 = 0.1938) was 1.37747 ± 0.00033, the refractive index (Wavelength=546.1 nm, x1 = 0.2029) was 1.3773 ± 0.00033 and the refractive index (Wavelength=546.1 nm, x1 = 0.245) was 1.37692 ± 0.00033. The refractive index (Wavelength=546.1 nm, x1 = 0.297) was 1.37666 ± 0.00034.
